As a reminder, the EC50 is the concentration at which the effect is half-maximal.

Read-outs that look alike come from different tables or passages of the source. Bounds are passed on as bounds.

The source of these data is patent US7960377B2 (priority 2008, dated 2011).

Common to all, as to experiment: cell-based
One test deals with T1, rat CB2 receptor (Rattus norvegicus, UniProt Q9QZN9).
T1 sequence (Q9QZN9 1-360): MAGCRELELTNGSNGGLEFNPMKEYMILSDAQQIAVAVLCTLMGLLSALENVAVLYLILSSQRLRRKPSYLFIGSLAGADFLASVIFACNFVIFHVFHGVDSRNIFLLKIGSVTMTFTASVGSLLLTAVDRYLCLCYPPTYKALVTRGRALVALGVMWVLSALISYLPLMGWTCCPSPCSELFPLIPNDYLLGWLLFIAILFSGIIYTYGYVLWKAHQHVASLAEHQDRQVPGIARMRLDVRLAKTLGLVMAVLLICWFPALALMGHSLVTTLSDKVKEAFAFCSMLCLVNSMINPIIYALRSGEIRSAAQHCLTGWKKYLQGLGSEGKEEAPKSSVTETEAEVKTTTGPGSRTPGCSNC
Format: cell-based.

A further test deals with human CB2 receptor (Homo sapiens, UniProt P34972). Format: cell-based.
For the next test, the target named is human CB1 receptor (Homo sapiens, UniProt P21554). Particulars: for inverse agonist mark, human CB1 receptor: asterisk at the compound number.
Where [1] appears, read: change in intracellular cAMP, CHO-K1 hCB2 cells, class AR, read-out: EC50 values for human CB2 receptor.

human CB1 receptor, sequence (P21554 whole entry): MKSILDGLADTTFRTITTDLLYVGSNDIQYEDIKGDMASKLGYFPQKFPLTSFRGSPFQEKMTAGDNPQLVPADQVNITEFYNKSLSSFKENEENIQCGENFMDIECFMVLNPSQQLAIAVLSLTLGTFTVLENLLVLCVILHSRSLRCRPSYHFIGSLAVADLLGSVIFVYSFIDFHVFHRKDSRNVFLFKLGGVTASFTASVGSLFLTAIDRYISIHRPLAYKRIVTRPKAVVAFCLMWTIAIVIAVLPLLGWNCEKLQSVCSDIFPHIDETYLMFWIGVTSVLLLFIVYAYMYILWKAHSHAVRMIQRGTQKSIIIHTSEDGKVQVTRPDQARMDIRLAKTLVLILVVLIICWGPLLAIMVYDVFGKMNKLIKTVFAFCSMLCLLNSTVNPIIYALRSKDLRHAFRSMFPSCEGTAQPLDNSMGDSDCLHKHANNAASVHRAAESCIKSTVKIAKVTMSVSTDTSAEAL
human CB2 receptor, sequence (P34972 whole entry): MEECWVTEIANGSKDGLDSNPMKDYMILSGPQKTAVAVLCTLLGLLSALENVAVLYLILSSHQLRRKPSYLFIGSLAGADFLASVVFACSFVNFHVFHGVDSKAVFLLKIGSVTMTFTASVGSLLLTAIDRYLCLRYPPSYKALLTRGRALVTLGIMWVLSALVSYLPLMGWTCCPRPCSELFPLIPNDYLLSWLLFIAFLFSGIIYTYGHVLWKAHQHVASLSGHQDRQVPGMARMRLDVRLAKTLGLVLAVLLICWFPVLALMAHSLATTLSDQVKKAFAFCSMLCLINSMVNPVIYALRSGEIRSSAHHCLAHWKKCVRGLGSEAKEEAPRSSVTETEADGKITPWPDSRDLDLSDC

`CC(C)(C)NC(=O)c1cnc2c(c1)N(S(=O)(=O)c1ccc(C#N)cc1)CCO2` [Example 3, N-tert-butyl-1-(4-cyanophenylsulfonyl)-2,3-dihydro-1H-pyrido[2,3-b][1,4]oxazine-7-carboxamide]: the EC50 on rat CB2 receptor and on human CB2 receptor was at most 0.03 µM each time.

`CC(C)(C)NC(=O)c1cnc2c(c1)N(S(=O)(=O)c1ccc(F)cc1)CCO2` [Example 7, N-tert-butyl-1-(4-fluoro-phenylsulfonyl)-2,3-dihydro-1H-pyrido[2,3-b][1,4]oxazine-7-carboxamide]: the EC50 on rat CB2 receptor and on human CB2 receptor was at most 0.03 µM each time.

Regarding `CC(C)(C)CNC(=O)c1cnc2c(c1)N(S(=O)(=O)c1ccc(F)cc1)CCO2` [Example 11], the EC50 at rat CB2 receptor and on human CB2 receptor was at most 0.03 µM in each case.

For the compound `CC(C)(C)NC(=O)c1cnc2c(c1)N(S(=O)(=O)c1ccc(Cl)cc1)CCO2` [Example 24, N-tert-butyl-1-(4-chlorophenylsulfonyl)-2,3-dihydro-1H-pyrido[2,3-b][1,4]oxazine-7-carboxamide], the EC50 on rat CB2 receptor and at human CB2 receptor was at most 0.03 µM throughout.

Turning to `O=C(NC1CCCC1)c1cnc2c(c1)N(S(=O)(=O)c1ccc(Cl)cc1)CCO2` [Example 25, 1-(4-chlorophenyl-sulfonyl)-N-cyclopentyl-2,3-dihydro-1H-pyrido[2,3-b][1,4]oxazine-7-carboxamide], the EC50 at rat CB2 receptor and on human CB2 receptor was at most 0.03 µM in each case.

On to `CCN(CCN(C)C)C(=O)c1cnc2c(c1)N(S(=O)(=O)c1ccc(C(F)(F)F)cc1)CCO2` [Example 38, N-(2-(dimethylamino)-ethyl)-N-ethyl-1-(4-(trifluoromethyl)phenylsulf-onyl)-2,3-dihydro-1H-pyrido[2,3-b][1,4]oxazine-7-carboxamide], for which the EC50 on human CB1 receptor and at human CB2 receptor (setting [1]) was above 30 µM each time.

Regarding `CC(C)(C)NC(=O)c1cnc2c(c1)N(S(=O)(=O)c1cc(Cl)cc(Cl)c1)CCO2` [Example 53, N-tert-butyl-1-(3,5-dichlorophenylsulfonyl)-2,3-dihydro-1H-pyrido[2,3-b][1,4]oxazine-7-carboxamide], the EC50 at human CB1 receptor and on human CB2 receptor was above 30 µM throughout.

With `CC(C)(C)NC(=O)c1cnc2c(c1)N(S(=O)(=O)Cc1ccc(C(F)(F)F)cc1)CCO2` [Example 63, N-tert-butyl-1-(4-(trifluoromethyl)benzylsulf-onyl)-2,3-dihydro-1H-pyrido[2,3-b][1,4]oxazine-7-carboxamide], the EC50 at human CB1 receptor and at human CB2 receptor (setting [1]) was above 30 µM each time.

`CCS(=O)(=O)N1CCOc2ncc(C(=O)NC(C)(C)C)cc21` [Example 80, N-tert-butyl-1-(ethylsulfonyl)-2,3-dihydro-1H-pyrido[2,3-b][1,4]oxazine-7-carboxamide]: the EC50 on human CB1 receptor and at human CB2 receptor was above 30 µM throughout.

As to `Cc1cccc(CS(=O)(=O)N2CCOc3ncc(C(=O)NC(C)(C)C)cc32)c1` [Example 81, N-tert-butyl-1-(3-methylbenzylsulfonyl)-2,3-dihydro-1H-pyrido[2,3-b][1,4]oxazine-7-carboxamide], the EC50 at human CB1 receptor and on human CB2 receptor (setting [1]) was above 30 µM throughout.

For the compound `CC(C)(C)NC(=O)c1cnc2c(c1)N(S(=O)(=O)c1ccccc1OC(F)(F)F)CCO2` [Example 84, N-tert-butyl-1-(2-(trifluoromethoxy)phenyl-sulfonyl)-2,3-dihydro-1H-pyrido[2,3-b][1,4]oxazine-7-carboxamide], the EC50 on human CB1 receptor and at human CB2 receptor (setting [1]) was above 30 µM throughout.

Regarding `CC(C)(C)NC(=O)c1cnc2c(c1)N(S(=O)(=O)c1cccc3ccccc13)CCO2` [Example 87, N-tert-butyl-1-(naphthalen-1-ylsulfonyl)-2,3-dihydro-1H-pyrido[2,3-b][1,4]oxazine-7-carboxamide], the EC50 at human CB1 receptor and at human CB2 receptor was above 30 µM throughout.

With `CC(C)(C)NC(=O)c1cnc2c(c1)N(S(=O)(=O)c1ccc3ccccc3c1)CCO2` [Example 88, N-tert-butyl-1-(naphthalen-2-ylsulfonyl)-2,3-dihydro-1H-pyrido[2,3-b][1,4]oxazine-7-carboxamide], the EC50 on human CB1 receptor and at human CB2 receptor was above 30 µM in each case.

In the case of `Cc1cc(S(=O)(=O)N2CCOc3ncc(C(=O)NC(C)(C)C)cc32)c(C)s1` [Example 91, N-tert-butyl-1-(2,5-dimethylthiophen-3-ylsulfonyl)-2,3-dihydro-1H-pyrido[2,3-b][1,4]oxazine-7-carboxamide], the EC50 at human CB1 receptor and on human CB2 receptor was above 30 µM in each case.

Consider `O=C(NCCO)c1cnc2c(c1)N(S(=O)(=O)c1ccc(Cl)cc1F)CCO2` [Example 115, 1-(4-chloro-2-fluorophenylsulfonyl)-N-(2-hydroxyethyl)-2,3-dihydro-1H-pyrido[2,3-b][1,4]oxazine-7-carboxamide], for which the EC50 on human CB1 receptor and at human CB2 receptor (setting [1]) was above 30 µM in each case.

For `O=C(c1cnc2c(c1)N(S(=O)(=O)c1ccc(Cl)c(Cl)c1)CCO2)N1CCN(c2ccccn2)CC1` [Example 117], the “inverse agonist mark, human CB1 receptor” value on human CB1 receptor is reported as 11, 24, 25, 42, 43*, 67, 117*, 121, 124, 131, 132, 148, 150, 151,. This compound also showed an EC50 at human CB2 receptor above 30 µM.

On to `O=C(c1cnc2c(c1)N(S(=O)(=O)c1ccc(Cl)c(Cl)c1)CCO2)N1CC(O)C1` [Example 125, (1-(3,4-dichlorophenyl-sulfonyl)-2,3-dihydro-1H-pyrido[2,3-b][1,4]oxazin-7-yl)(3-hydroxyazetidin-1-yl)methanone], for which the EC50 on human CB1 receptor and on human CB2 receptor (setting [1]) was above 30 µM throughout.

On to `O=C(N[C@H]1CC[C@H](O)CC1)c1cnc2c(c1)N(S(=O)(=O)c1ccc(Cl)c(Cl)c1)CCO2` [Example 134, 1-(3,4-dichlorophenyl-sulfonyl)-N-(trans-4-hydroxycyclohexyl)-2,3-dihydro-1H-pyrido[2,3-b][1,4]oxazine-7-carboxamide], for which the EC50 at human CB1 receptor and at human CB2 receptor (setting [1]) was above 30 µM each time.

For the compound `CC(C)(C)NC(=O)c1cnc2c(c1)N(S(=O)(=O)N1CCC(c3ccccc3)CC1)CCO2` [Example 158, N-tert-butyl-1-(4-phenylpiperidin-1-ylsulfonyl)-2,3-dihydro-1H-pyrido[2,3-b][1,4]oxazine-7-carboxamide], the EC50 at human CB1 receptor and at human CB2 receptor was above 30 µM in each case.

For the compound `CCC(C)(C)NC(=O)c1cnc2c(c1)N(S(=O)(=O)N1CCC(c3ccccc3)CC1)CCO2` [Example 159, N-tert-pentyl-1-(4-phenylpiperidin-1-ylsulfonyl)-2,3-dihydro-1H-pyrido[2,3-b][1,4]oxazine-7-carboxamide], the EC50 on human CB1 receptor and on human CB2 receptor was above 30 µM each time.

Turning to `CC(C)(CO)CNC(=O)c1cnc2c(c1)N(S(=O)(=O)N1CCC(c3ccccc3)CC1)CCO2` [Example 161, N-(3-hydroxy-2,2-dimethylpropyl)-1-(4-phenylpiperidin-1-ylsulfonyl)-2,3-dihydro-1H-pyrido[2,3-b][1,4]oxazine-7-carboxamide], the EC50 on human CB1 receptor and on human CB2 receptor was above 30 µM each time.

As to `CN1CCN(S(=O)(=O)N2CCOc3ncc(C(=O)NC(C)(C)C)cc32)CC1` [Example 174, N-tert-butyl-1-(4-methylpiperazin-1-ylsulfonyl)-2,3-dihydro-1H-pyrido[2,3-b][1,4] oxazine-7-carboxamide], the half-maximal effective concentration (EC50) at human CB1 receptor and on human CB2 receptor was above 30 µM in each case.

Turning to `CC(C)(C)NC(=O)c1cnc2c(c1)N(S(=O)(=O)N1CCc3ccccc3C1)CCO2` [Example 188, N-tert-butyl-1-(3,4-dihydroisoquinolin-2(1H)-ylsulfonyl)-2,3-dihydro-1H-pyrido[2,3-b][1,4]oxazine-7-carboxamide], the “inverse agonist mark, human CB1 receptor” value on human CB1 receptor is 152, 154, 155, 165, 184, 185, 187, 188*, 212, 214, 217, 227. Further, the EC50 at human CB2 receptor was above 30 µM.

Consider `CCC(C)(C)NC(=O)c1cnc2c(c1)N(S(=O)(=O)N1CCc3ccccc3C1)CCO2` [Example 189, 1-(3,4-dihydroisoquinolin-2(1H)-ylsulfonyl)-N-tert-pentyl-2,3-dihydro-1H-pyrido[2,3-b][1,4]oxazine-7-carboxamide], for which the EC50 on human CB1 receptor and at human CB2 receptor was above 30 µM in each case.

With `CC(C)(CO)NC(=O)c1cnc2c(c1)N(S(=O)(=O)N1CCc3ccccc3C1)CCO2` [Example 190, 1-(3,4-dihydroisoquinolin-2(1H)-ylsulfonyl)-N-(1-hydroxy-2-methylpropan-2-yl)-2,3-dihydro-1H-pyrido[2,3-b][1,4]oxazine-7-carboxamide], the EC50 on human CB1 receptor and on human CB2 receptor was above 30 µM in each case.

Take `O=C(NC1(C(=O)O)CCC1)c1cnc2c(c1)N(S(=O)(=O)c1ccc(C(F)(F)F)cc1)CCO2` [Example 208, 1-(1-(4-(trifluoromethyl)phenylsulfonyl)-2,3-dihydro-1H-pyrido[2,3-b][1,4]oxazine-7-carboxamido)cyclobutanecarboxylic acid]: the EC50 at human CB1 receptor and at human CB2 receptor (setting [1]) was above 30 µM throughout.

Take `CC1(C)CNC(c2cnc3c(c2)N(S(=O)(=O)c2ccc(C(F)(F)F)cc2)CCO3)=N1` [Example 224, 7-(4,4-dimethyl-4,5-dihydro-1H-imidazol-2-yl)-1-(4-(trifluoromethyl)phenylsulfonyl)-2,3-dihydro-1H-pyrido[2,3-b][1,4]oxazine]: the concentration giving a half-maximal response (EC50) at human CB1 receptor and on human CB2 receptor (setting [1]) was above 30 µM in each case.
